Here are results for two compounds from patent publication US5561131A, “Defaunation method” (Mallinckrodt Veterinary, Inc., priority 1991, dated 1996).

One data set concerns rumen ciliate protozoa. Briefly: In vitro activity of defaunation compounds against rumen ciliate protozoa. Particulars: 39° C., anaerobic, 3 hours, tested at 50, 150, 250 and 500 ppm. It is filed as cell-based.
In data set [1] the test system is rumen bacteria. Briefly: Bacterial viability in sheep after administering defaunation compounds. Note: key: Poor: reduction in gas; Okay: same as predosing levels; Good: increase relative to predosing levels. Type of data set: in vivo. The conditions noted are these: gas production one week after dosing vs pre-dosing.
A short description of data set [2]: Effect of defaunation compounds on feed intake of sheep. Type of data set: in vivo. The conditions noted are these: after dosing vs pre-dosing intake.
Data set [3] can be described thus: Wool growth in defaunated sheep. It is filed as in vivo. The conditions noted are these: 167 mg/kg; for Response To Defaun: clean wool growth defaunated vs refaunated. As for the experimental part: (§1) Seven sheep each were defaunated using a dose rate of 167 mg/kg. Compounds were administered by first mixing with 20 ml of ethanol and then with 200 ml of centrifuged rumen liquor. This solution was then administered via a flexible stomach tube directly into the rumen. The sheep were fed with a ration of 90% oaten chaff and 10% Lucerne chaff at a rate of 1000 g per day. The sheep were maintained in a defaunated state by their isolation from faunated sheep to prevent the possibility of refaunation. The sheep were allowed to adjust for 3 weeks after administering the compound before any wool growth measurements were taken.
(§2) At the start of the wool growth measurement period, a 10 cm square area of wool was removed from both sides of the sheep. After four weeks the same area was reclipped and the wool retained for scouring at the end of the trial.
(§3) The sheep then had protozoa introduced back into their rumen and were allowed to adjust for three weeks. Similarly, during the second four week period, the wool was clipped from the same patch area. The wool harvested during the two four week trial periods was then scoured of wool wax and extraneous material and weighed.

For data set [4], the system named is protozoa. Put plainly: Wool growth trial: protozoal number. Particulars: sheep, defaunated period, 167 mg/kg. It is filed as in vivo. As for the experimental part:
as §1, §2, §3

For data set [5], the system named is protozoa. Put plainly: Sheep test: protozoal numbers. It is filed as in vivo. The method, then: (§4) In this trial the effect of defaunation by compounds 27, 30 and 37 (see Table 1) after 1 and 3 weeks were examined using penned sheep.
(§5) The compounds were each administered to two sheep as a single dose at 167 mg/kg body weight. Compositions containing each compound were prepared according to the method of Example 1. Sheep were penned and fed 1000 g/day of a chaffed oaten hay and Lucerne mixture (90/10). Protozoal and bacterial viabilities were monitored along with the feed intake of the sheep according to the methods taught in Examples 2, 3 and 7.

Data set [6] deals with rumen bacteria. Put plainly: Sheep test: bacterial gas production. It is filed as in vivo. The method, then:
as §4, §5

A short description of a further data set: Sheep test: feed intake. It is filed as in vivo. As for the experimental part: as §4, §5
The subject of data set [7] is protozoa. Briefly: Pilot field testing: elimination of protozoal population in sheep. Type of data set: in vivo. Particulars: for Elimination of protozoa: one week after single dose of 167 mg/kg. The method, then: (§6) In this trial the effect of defaunation agents after 1 and 2 weeks was examined in sheep in pilot field studies.
(§7) Thirty mature fine wooled merino weather sheep consuming a forage diet were given a single dose of either compound 27 or 37. The dose rate was 167 mg/kg and each compound was dispersed in 20 mL of ethanol and 200 mL of centrifuged rumen liquor. The compounds were then administered into the rumen using a flexible stomach tube.

A short description of data set [8]: Pilot field testing: adverse effects and grazing behavior. Particulars: sheep, 167 mg/kg. It is filed as in vivo. The method, then:
as §6, §7

Data set [9] concerns protozoa. Put plainly: Pilot field testing: elimination of protozoal population in sheep. It is filed as in vivo. The conditions noted are these: week 3, 167 mg/kg.

In the case of `Cc1ccc(Nc2nc(Cl)nc(Cl)n2)cc1Cl` [Compound 27, 2,4 dichloro-6-(3 chloro-4-methylanilino)-s-triazine], the “Conc Required to Kill all Protozoa” value in the data set on rumen ciliate protozoa is 150 ppm. For the same compound, the “Bacterial Viability” value with rumen bacteria [1] is listed as “Okay”. The “Feed Intake” value in data set [2] is listed as “Okay (transient drop, less than 50% at day 2)”; in the data set “Sheep test: feed intake” (1 week after 167 mg/kg), 1000 g/day; in “Sheep test: feed intake” (3 weeks after 167 mg/kg), 1000 g/day; in “Sheep test: feed intake” (pre-dose (baseline)), 966 g/day. The “Response To Defaun” value in data set [3] (sheep) is on record as 10.3. In addition, the “Clean Wool Growth” value in data set [3] (sheep, defaunated period, 4 weeks, per midside patch) turned out to be 1.753 g. Besides, the “Prot. Number” value in the data set on protozoa [4] was found to be 0 per mL × 10^3. For the same compound, the figures for the “Protozoal Nos.” value in the data set with protozoa [5] (1 week after 167 mg/kg), in the data set with protozoa [5] (3 weeks after 167 mg/kg) and in the data set on protozoa [5] (pre-dose (baseline)) were 0 per mL × 10^3, 0 per mL × 10^3 and 950 per mL × 10^3, respectively. The Bacterial gas production in the data set with rumen bacteria [6] (1 week after 167 mg/kg) turned out to be 3.5 M1 per 5 hr; in the data set with rumen bacteria [6] (3 weeks after 167 mg/kg), 3.8 M1 per 5 hr; with rumen bacteria [6] (pre-dose (baseline)), 2.9 M1 per 5 hr. For the same compound, the Elimination of protozoa entry with protozoa [7] is recorded as “total elimination of protozoa in all sheep”. In addition, the Protozoal number in the data set on protozoa [7] (week 0, 167 mg/kg) is listed as 285 per mL × 10^3; with protozoa [7] (week 1, 167 mg/kg), 0 per mL × 10^3; with protozoa [7] (week 2, 167 mg/kg), 0 per mL × 10^3; in the data set with protozoa [9], 0 per mL × 10^3. The “Adverse effects and grazing behavior” value in data set [8] was “no adverse effects and grazing behavior was normal”.
As for `Clc1nc(Cl)nc(Nc2ccccc2Cl)n1` [Compound 37, 2,4-dichloro-6-(2-chloroanilino)-1,3,5-triazine], the “Conc Required to Kill all Protozoa” value with rumen ciliate protozoa was found to be 250 ppm. For the same compound, in the data set on rumen bacteria [1], the “Bacterial Viability” value is listed as “Okay”. For the same compound, the “Feed Intake” value is “Okay (transient drop, less than 50% at day 2)” in [2]; 930 g/day in the data set “Sheep test: feed intake” (1 week after 167 mg/kg); 820 g/day in the data set “Sheep test: feed intake” (3 weeks after 167 mg/kg); 1000 g/day in the data set “Sheep test: feed intake” (pre-dose (baseline)). In data set [3] (672 h), the “Clean Wool Growth” value came to 1.773 g. For the same compound, the “Response To Defaun” value in [3] (sheep) was 8.9. For the same compound, in the data set on protozoa [4], the “Prot. Number” value was 0 per mL × 10^3. Moreover, the “Protozoal Nos.” value is on record as 0 per mL × 10^3 with protozoa [5] (1 week after 167 mg/kg), 0 per mL × 10^3 with protozoa [5] (3 weeks after 167 mg/kg) and 497 per mL × 10^3 in the data set with protozoa [5] (pre-dose (baseline)). The Bacterial gas production with rumen bacteria [6] (1 week after 167 mg/kg) is recorded as 1.9 M1 per 5 hr; with rumen bacteria [6] (3 weeks after 167 mg/kg), 3.4 M1 per 5 hr; in the data set with rumen bacteria [6] (pre-dose (baseline)), 1.8 M1 per 5 hr. Also, the Elimination of protozoa result in the data set with protozoa [7] is given as “total elimination of protozoa in all sheep”. For the same compound, the Protozoal number in the data set with protozoa [7] (week 0, 167 mg/kg) was 190 per mL × 10^3; with protozoa [7] (week 1, 167 mg/kg) it was 0 per mL × 10^3; in the data set with protozoa [7] (week 2, 167 mg/kg), 0 per mL × 10^3; with protozoa [9], 0 per mL × 10^3. For the same compound, the “Adverse effects and grazing behavior” value in data set [8] was “no adverse effects and grazing behavior was normal”.
